Reference: patent publication US20040028753A1, “Inhalation of nitric oxide” (priority 2000, published 2004)

What was measured:
TXB2 = experiment: Plasma TXB2 concentration by enzyme immunoassay; type: in vivo, pig
Procedure: The injections were evenly distributed over the respiratory cycle. The expired minute volume was recorded at each measurement.
Blood was collected in pre-chilled tubes containing EDTA (10 mM, final concentration), centrifuged (10 min 40C). Measurements of TXB2 concentration were performed using a commercially available enzyme immunoassay (Thromboxane B2 EIA kit Cayman Chemical, MI, USA, Ca 519031). Serum was collected from each test tube and stored at −70° C. until TXB2 measurements were performed. To ensure that all samples were free of organic solvents, the serum was purified before its addition to the assay well. Purification of TXB2 was performed as the Cayman Chemical Introduction, by first adding 10,000 cpm of tritium-labeled TXB2 (3H-TXB2) to each sample, and then 2 ml ethanol, followed by votex 4° C. for 5 minutes, and centrifugation at 1500 g for 10 minutes to remove precipitated proteins. The supernatant was collected and mixed with ultra-pure water. The sample was passed through a C-18 reverse phase cartridge. Ten percent of the eluate was removed for scintillation counting.
Enzyme immunoassays were performed in duplicate by mixing 50 μl purified sample with 50 μl tracer and 50 μl antiserum on micro-plates. After 18 hours incubation, 200 μl Ellmans-Reagents was added to start the enzymatic reaction, and the absorption of individual vials was measured 30 minutes later at 405 nm using a photometry micro-plate reader (Thermo Max, Molecular Devices). Concentrations of TXB2 in the samples were estimated from standard curves obtained by nonlinear regression to absorption of eight known TXB2 concentrations ranging from 7.5 to 1000 pg/ml. The intra-assay and inter-assay coefficients of variation were <10%. For further details, see the TXB2 Enzyme immunoassay Kit 519031 Cayman Chemical manual.

COX-2 = COX-2 expression in lung tissue by Western blotting; type: in vivo, pig; settings: no-block group
Procedure: (§1) The lung tissue blocks were rinsed by PBS at 4° C. The total protein of lung tissue was extracted by homogenization (Ultra-Turrax, Jenke and Kunkel, IKA Labortechnik, Staufen, Germany) in 5 volumes of ice-cold 0.05M Tris buffer (pH 7.4) containing 0.5 mM phenylmethyl-sulfonylfluoride to inhibit proteolysis. The supernatant was collected and stored at −80° C. until the analysis. The concentration of whole protein in the supernatant was determined by the method of Lowry. Then the protein was fractionated by sodium dodecyl sulfate-polyacrylamide gel electrophoresis, and electrophoretically transferred to a nitrocellulose membrane. The blot was blocked with 5% BSA in TBS overnight at 4° C. and then incubated with anti-COX-1 (1:2500, Cayman Chemical, MI, USA, Ca 160108), COX-2 (1:1500, Cayman Chemical, MI, USA, Ca 160108) in TBS containing 1% BSA over night at 4° C. […] The blot was washed 5 times in TBS, and the antigen-antibody complex was detected on photographic film, using enhanced chemiluminescence reagent (Amersham, Arlington Heights, Ill., USA). All the experiments were carried out three times, and the bands from each experiment were analyzed using the program of National Institutes of Health (NIH) Image 1.6 C for statistical analysis.

[1] = test system: pigs with endotoxin-induced acute lung damage
Procedure: The Animal Research Ethics Committee of Uppsala University approved the study. Twentysix pigs of Swedish country breed, weighing 24-29 Kg, were used in the study. Before the transport from the farm, the pigs were sedated with a neuroleptic, azaperonum ([…], Janssen, Belgium), 40 mg intramuscularly (im). Anaesthesia was induced with atropine im (0.04 mg/Kg), tiletamin/zolazepam (ZOLETIL, Virbac Laboratories) (6 mg/Kg) and xylzry (ROMPUN, Bayer AG, Germany) (2.2 mg/Kg). After induction, a cannula was inserted in an ear vein and an opioid ([…], Antigen Pharmaceuticals Ltd, Roscrea, Ireland) (5 ug/Kg) was injected. Muscle relaxation was provided by pancuronium (PAVULON, Organon Technika AB, Göteborg, Sweden) ([…]). Anaesthesia was maintained with a continuous infusion of a hypnotic (chlomethiazole, HEMINEVRIN, Astra, Södertälje, Sweden) (400 mg/hour), pancuronium (2 mg/hour) and fentanyl (150 ug/hour) Repeated doses of fentanyl 0.2-0.5 mg i.v. were given as necessary. Depth of anaesthesia was considered to be adequate when skin incisions did riot cause any changes in heart rate or blood pressure. Pre-warmed (38° C.) isotonic saline 500 ml/hour was given for hydration. The animals were placed in the supine position (dorsal recumbency) for the remainder of the study.
A tracheotomy was performed after induction of anaesthesia and a cuffed tracheal tube (inner diameter 6 mm) was inserted. A volume-controlled ventilator (Siemens 900c) provided mechanical ventilation. Transducers built into the ventilator recorded airway pressure and minute ventilation. Respiratory frequency was maintained at 20 breaths per minute with tidal volume adjusted to maintain an end-tidal CO2 (PetCO2) between 36 and 41 mm Hg (4.8-5.4 kPa). The inspiratory time was 25%; an end-inspiratory pause 5% of the respiratory cycle was applied, as well as an end-expiratory pressure (PEEP) of 5-cm H2O. Inspired fraction of oxygen (FIO2) was 0.5.
A triple lumen balloon-tipped catheter (Swan Ganz no. 7F) was introduced via the right external jugular vein to the pulmonary artery for blood sampling and pressure recordings. […] The right carotid artery was cannulated for blood sampling and recording of arterial blood pressure.
The arterial, central venous and pulmonary artery catheters were connected to appropriate pressure transducers (Sorenson Transpac.Transducers, Abbott Critical Care Systems, Ill, USA) and pressures were recorded on a Marquette 7010 monitor (Marquette Electronics Inc., WI USA). Mean arterial pressure (MAP), mean pulmonary artery pressure (MPAP), heart rate (HR), central venous pressure (CVP), pulmonary capillary wedge pressure (PCWP) and cardiac output (Qt) were recorded. Airway pressures were registered from the ventilator. Vascular pressures were averaged over the whole respiratory cycle and the mid-thorax was used as the zero reference level.
Qt was measured.by means of thermodilution: 10 ml of ice cold isotonic saline were injected as a bolus and the Qt was computed (cardiac output computer Marquette 7010, Marquette Electronics Inc., WI, USA). At least three injections were given for each measurement and the mean was calculated. The injections were evenly distributed over the respiratory cycle. The expired minute volume was recorded at each measurement. Mixed venous and arterial blood samples were collected for blood gas analysis (ABL 3, Radiometer, Copenhagen, Denmark), oxygen saturation and hemoglobin concentration (OSM 3, Radiometer, Copenhagen, Denmark). Five-ml arterial blood were collected at the same time, the plasma was separated for biochemical analysis (see below).
Acute lung damage was induced by intravenous infusion of endotoxin 25 ug/kg/hour for 3 hours, and then maintained at 10 ug/kg/hour during the remaining experimental period.
Thirty minutes after surgery, baseline measurements of hemodynamics were made, blood samples were taken and blood was collected for subsequent biochemical analysis.

COX-1 = COX-1 expression in lung tissue by Western blotting; type: in vivo, pig; settings: 3 and 5 hour INO trial, no-block group
Procedure: as §1

[2] = inhalation of 30 ppm NO after 3 hours of endotoxin infusion (first trial)
[3] = second trial, after 4 hours of endotoxin infusion, 30 ppm NO
[4] = second trial, five minutes after discontinuation of NO inhalation

| Compound | plasma TXB2 level during NO inhalation (TXB2; first INO trial) | plasma TXB2 after INO withdrawal (TXB2; first INO trial, five minutes after withdrawal, p<0.05 in no-block group) | plasma TXB2 after second INO withdrawal (TXB2; second INO trial) | effect of thirty minutes of INO on COX-2 expression (COX-2; 3 and 5 hour inhalation test) | COX-2 expression after the INO periods (COX-2) | time to MPAP increase after discontinuation of NO inhalation ([1]; first trial) [min] | PaO2 rebound on discontinuation of NO inhalation ([1]; first trial (3 hours of endotoxin infusion)) | decrease in MPAP [1, 2] [%] | increase in PaO2 [1, 2] [%] | increase in respiratory resistance during the endotoxin infusion ([1]; pig, in vivo) | MPAP response to NO inhalation in second trial compared with first trial one hour earlier [1, 3] | PaO2 response to NO inhalation in second trial compared with first trial one hour earlier [1, 3] | MPAP increase above the pre-NO level after discontinuation [1, 4] [%] | PaO2 after discontinuation relative to pre-NO level [1, 4] | effect of inhalation or discontinuation on COX-1 expression (COX-1) | effect of pretreatment on MPAP ([1]; Diclofenac in saline 300 mg/Kg iv bolus 30 minutes before NO inhalation, endotoxin infusion) |
| --- | --- | --- | --- | --- | --- | --- | --- | --- | --- | --- | --- | --- | --- | --- | --- | --- |
| [N]=O [NO, nitric oxide] | did not change | increased | further increase | had no effect | remained increased | ≤ 5 | did not show a clear rebound phenomenon | 28 | 54 | did not prevent or attenuate the rise | weaker | weaker, and no longer significant | 26 | fallen to below the pre-NO level | did not affect |  |
| O=C(O)Cc1ccccc1Nc1c(Cl)cccc1Cl [Diclofenac] |  |  |  |  |  |  |  |  |  |  |  |  |  |  |  | lowered MPAP |
